In patent US5833994A, “Use of the AH receptor and AH receptor ligands to treat or prevent cytopathicity of viral infection” (Paracelsian, Inc., priority 1997, dated 1998):
pEC50, pIC50: −log10 of the molar value. Entries after “also recorded” stand apart in the source; their conditions may differ.

Legend:
[1] = test system: CDK1; experiment: Inhibition of CDK1 hyperphosphorylation, western blot densitometry; format: cell-based; details: TCDD, 10 nM; mean ± standard error, n=5 or 6; 2-8 co-culture 44.27, 2-2 co-culture 10.41
Protocol: (§1) The expression of the protein kinase c-Mos was induced in addition to alterations in cell cycle (CDK1, cyclin B) and apoptotic (Bcl-2 and Bax) protein concentrations and phosphorylation status. CDK1 became hyperphosphorylated whereas cyclin B, Bcl-2, and Bax expression were elevated. Assay for these biochemical changes was performed by western blot analysis using equal amounts of cell lysate proteins derived from cells cultured with the respective Ah receptor ligands. Responses were quantified by scanning densitometry.
(§2) Data from Table 2 represents the mean ± standard error of scanning densitometric units (n=5 or 6 individual scans from separate experiments).Doses used were as follows: TCDD, 10 nM; Substituted Furans (6-nitro 1,3,8-trichlorodibenzofuran; 6-isopropyl, 1,3,8-trichlorodibenzofuran; 6-methyl, 1,3,8-trichlorodibenzofuran; 1-bromo, 6-methyl, 3,8-dichlorodibenzofuran), 2 μM. All four alkyl substituted furan compounds that were tested yielded approximately equivalent responses so their responses were combined.

[2] = test system: Cyclin B; experiment: Inhibition of cyclin B overexpression, western blot densitometry; format: cell-based; details: TCDD, 10 nM; mean ± standard error, n=5 or 6; 2-8 co-culture 61.88, 2-2 co-culture 10.14
Protocol: as §1, §2

[3] = test system: Cyclin B; experiment: Inhibition of cyclin B overexpression (cyclin B ELISA; FIGS. 2 and 3); format: cell-based; details: FIG. 2 / FIG. 3
Protocol: Cyclin B ELISA procedure: The overexpression Cyclin B has become associated with HIVenv 2-8 cytopathicity. This biochemical response and it's inhibition by Ah receptor ligands has been assayed by ELISA. Following 24 hours of co-culture in 96 well microtiter tissue culture plates, the cells are washed 1X with PBS buffer and then lysed with 50 μL lysis buffer (50 mM Tris, […], 10% glycerol, 1% NP-40) with shaking at 4° C. for 30 minutes. Thirty microliters of the cell lysate were then transferred into Immulon 4™ ELISA strip plates and 70 μL of coating buffer (0.2M Borate pH 10.5) added to bring the final microtiter well volume to 100 μL The plates were then incubated at 37° C. for 1 hour to allow for coating. The plates are then washed 3X with 300 μl TBST (20 mM Tris, 150 mM NaCl, 0.05% Tween 20, pH 7.5), incubated with 125 μL of blocking solution for 5 minutes, washed 3X, incubated with horseradish peroxidase labeled anti-mouse IgG for 1 hour at room temperature, washed 3X, and then incubated with 100 μL TMB substrate for 30 minutes at room temperature. Stop solution (2.5M sulfuric acid, 100 μL) was then added to prevent further color development and the plate was read at an optical density of 450 nm.
Data Reduction for this ELISA: HIVenv 2-2 co-culture ELISA values are used as the background for HIVenv 2-8 co-culture values. […]

[4] = test system: HIV envelope gp120/41-induced syncytia formation in CD4+T cell lines (HIVenv 2-8 co-culture); experiment: Inhibition of HIVenv 2-8-induced syncytia formation / cell death (HIV-1 co-culture assay); format: cell-based; details: for Estimated IC50 (Syncitia Quantification), inhibition of HIV-induced cytopathicity: Table 1
Protocol: Sourcing of Ah Receptor Ligands: The Ah receptor ligands 2,3,7,8-Tetrachlorodibenzo-p-dioxin, 3,3',4,4',5-Pentachlorobiphenyl, 3,3',4,'4-Tetrachlorobiphenyl, and 2-Monochlorodibenzo-p-dioxin compounds were purchased from Accustandard (Cambridge, Mass.). α-naphthoflavone was purchased from Sigma (St. Louis, Mo.). Stock solutions of each compound were prepared by dissolution in DMSO at a 1000X concentration, i.e. the highest concentration tested was diluted by 1000-fold.
Bioassay Procedure: The cell lines utilized in the assay protocol include the following: HIVenv 2-2 (non-cytopathic), HIVenv 2-8 (cytopathic), Jurkat CD4+T cell line (clone E6-1), and SupT1. Cell lines were cultured in RPMI medium (Gibco, Grand Island, N.Y.) supplemented with L-glutamine (Sigma, St. Louis, Mo.) and 10% FBS-HI (Intergen). The Jurkat CD4+T cell line was obtained from American Type Culture Collection (Bethesda, Md.). All other cell lines were obtained from the National Institutes of Health. The HIVenv 2-2 or HIVenv 2-8 cells were plated with both CD4+T cell lines (1×10^3 cells per cell line in 16 μL of media.) in a 96-well tissue culture plate containing 50 μL of media with compound to be tested yielding a final volume of approximately 100 μL. The plates were then gently shaken to ensure adequate mixing of the assay components. Cells were then co-cultured at 5% CO2, 37C., and 95% humidity for 24 to 48 hours. The time points were chosen for the convenience, cytopathic changes become evident in the cell cultures used within a 2 to 4 hour period, becoming more and more prominent with time.
Data Reduction for this ELISA: HIVenv 2-2 co-culture ELISA values are used as the background for HIVenv 2-8 co-culture values. Dose responses are then plotted with dose along the x-axis and the background corrected optical density values on the y-axis.
Positive and Negative Controls: The use of the HIVenv 2-2 cell line serves as a negative control for induction of cytopathicity.
(§3) Interpretation of the Test: A positive response was defined as a dose-related decrease in syncytia formation in excess of 50% compared to HIVenv 2-8 co-cultures alone. Calculation of median effective doses was estimated by visual observation and by quantification of syncitia in 10X power microscope fields.
The Materials and Methods used in the testing of the various dibenzofuran compounds were the same as those used in Example 1 above. This includes the use of the same controls, cell lines, and assay procedures.
as §3, with “fields. Another procedure which provides data similar to the Bioassay procedure just described allows for quantification of changes in the co-culture cells through an ELISA method, not as reliant on visual observation. […]” for “fields.”

[5] = molecular target: T1, Ah receptor (Cavia porcellus, UniProt Q6J287); experiment: Ah receptor transformation, agonist test (Ah-immunoassay, absence of TCDD); format: biochemical, Guinea pig
T1 sequence (Q6J287 1-846): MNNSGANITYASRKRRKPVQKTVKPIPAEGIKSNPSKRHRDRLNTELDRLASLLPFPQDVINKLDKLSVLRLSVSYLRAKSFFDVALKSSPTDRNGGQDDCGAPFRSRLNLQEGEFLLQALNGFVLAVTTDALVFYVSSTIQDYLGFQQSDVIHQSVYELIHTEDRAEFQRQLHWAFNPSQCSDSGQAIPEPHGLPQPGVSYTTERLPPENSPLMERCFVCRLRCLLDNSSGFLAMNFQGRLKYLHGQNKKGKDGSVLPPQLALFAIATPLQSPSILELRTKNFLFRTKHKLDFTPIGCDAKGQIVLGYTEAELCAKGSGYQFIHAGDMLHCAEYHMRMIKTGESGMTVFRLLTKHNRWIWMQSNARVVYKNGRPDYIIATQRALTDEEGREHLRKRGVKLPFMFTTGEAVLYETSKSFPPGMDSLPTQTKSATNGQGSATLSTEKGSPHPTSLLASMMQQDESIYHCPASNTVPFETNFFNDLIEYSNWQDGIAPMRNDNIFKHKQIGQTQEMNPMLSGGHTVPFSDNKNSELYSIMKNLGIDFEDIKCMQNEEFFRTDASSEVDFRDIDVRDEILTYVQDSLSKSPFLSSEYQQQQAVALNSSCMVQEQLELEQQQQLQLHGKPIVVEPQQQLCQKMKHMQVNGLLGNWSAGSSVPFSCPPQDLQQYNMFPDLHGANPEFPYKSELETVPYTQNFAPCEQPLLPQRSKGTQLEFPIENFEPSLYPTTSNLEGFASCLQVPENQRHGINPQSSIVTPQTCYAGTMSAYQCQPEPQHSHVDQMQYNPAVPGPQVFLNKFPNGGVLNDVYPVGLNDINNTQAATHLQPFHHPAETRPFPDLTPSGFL
Protocol: Cytosol was prepared as described above.
Diluent for TCDD dose response, diluent for extracts (detection of agonists), and negative control: The cytosol is treated with 1 μL DMSO per 1 mL cytosol (-).
1 nM TCDD treated, positive control. […] DMSO diluent for detection of agonists: the cytosol is treated with μL DMSO per 1 mL cytosol. (1 nm final concentration of TCDD).

[6] = test system: transformed, cancerous cells; details: cited from earlier work
[7] = molecular target: T1, Ah receptor; experiment: Inhibition of Ah receptor transformation, antagonist test (Ah-immunoassay, 0.5 nM TCDD)
Protocol: Cytosol was prepared as described in methods and treated with TCDD, DMSO or TCM extract to make 1) 0.5 nM TCDD, 2) 0.1% DMSO, or 3) 500 μg/mL TCM extract, respectively. The treated cytosol was serially diluted in a neutravidin-coated ELISA plate (Pierce, Rockford, Ill.). […] To treat for Ah receptor agonist activity, extracts were diluted in 0.5 nM TCDD treated cytosol to 250, 125, and 62.5 μg/mL of TCM extracts.
Ten mL aliquots of cytosol were thawed and pooled, generally 20 mL per ELISA plate. For each 20 mL of cytosol, 10 μL of thawed DRE stock and 1 mL HEDG in 4M NaCl were added.
0.5 nM TCDD Diluent for extracts (detection of antagonists): The cytosol is treated with 1 μl of 1 μM TCDD per 2 mL cytosol (0.5 nm).
500 μg/mL extracts (detection of antagonists): 1 μL of test extract (500 mg/mL in DMSO) in 1 mL 0.5 nM TCDD-treated cytosol (500 μg/mL final concentration of extract in cytosol).
Serial dilution's of the extracts and/or TCDD treated cytosol into DMSO-treated cytosol are done as required by the experiment and are described in the examples.
The ELISA plate containing the treated cytosol is incubated with gentle rocking for 2 hours at 30° C. to allow the transformation of Ah receptor, binding of Ah receptor with ARNT, and binding of the Ah receptor/ARNT complex to the biotinylated DRE, and binding of the biotinylated DRE to the neutravidin bound to the ELISA plate.
After 2 hours the plate is washed 3 times with 400 μL TBS plus 0.02% Tween 20 per well per wash and 200 μL of the working dilution of anti-ARNT added to all wells. The plate is again incubated with gentle rocking at 30° C. for 1 hour. After 1 hour the plate is washed as before and a working dilution (1:4000) of anti-rabbit/alkaline phosphatase conjugate is added to all wells. The plate is incubated for a further 1 hour at 30° C. with gentle rocking and then washed as before. PNPP stock is added to each well (200 μL) and the plate is incubated for 1 hour at 30° C., at which time it is read at 405 nm in an ELISA plate reader and the milli O.D.'s of the wells are recorded.
TCM extracts were tested for their ability to inhibit the transformation of the Ah receptor.

[8] = high dosages over a prolonged period; cited from earlier work
[9] = test system: Ah receptor; details: literature; cited from earlier work

Compound: Clc1cc2c(cc1Cl)Oc1cc(Cl)c(Cl)cc1O2 [2,3,7,8-TCDD, 2,3,7,8-Tetrachlorodibenzo-p-dioxin]
- CDK1 Phosphorylation [1]: 11.13 ± 3.3 scanning densitometric units
- Cyclin B (inhibition of cyclin B overexpression) [2]: 9.32 ± 2.7 scanning densitometric units
- inhibition of cyclin B overexpression (figure legend) [3]: inhibition of cyclin B overexpression
- inhibition of syncytia formation / cytopathicity [4]: most effective compound and strongest Ah receptor agonist
- Estimated IC50 (Syncitia Quantification), inhibition of HIV-induced cytopathicity [4]: 2 nM
- pEC50 [5]: 9.30
- Milli O.D. of TCDD control ([5]; Table 12 footnote, .5 nM TCDD, BG subtracted, read at 450 nm): 850 Milli O.D.

Compound: COC1C=CC=C(C)C(=O)NC2=CC(=O)C=C(C2=O)C(OC)C(C)CC(OC)C(OC)C(C)C=C(C)C1OC(N)=O (centres unmarked) [Herbimycin A, herbimycin A]
- inhibition of cyclin B overexpression (figure legend) [3]: inhibition of cyclin B overexpression
- inhibition of syncytia formation / cytopathicity [4]: block the HIVenv 2-8 induced cytopathic effect
- Estimated IC50 (Syncitia Quantification), inhibition of HIV-induced cytopathicity [4]: 750 nM
- Estimated IC50 (Syncitia Quantification), inhibition of HIV-induced cytopathicity, second value in brackets ([4]; Table 1, positive control): 430 nM

Compound: O=c1c(O)c(-c2ccc(O)c(O)c2)oc2cc(O)cc(O)c12 [Quercetin]
- anti-proliferative effect [6]: anti-proliferative effect on those transformed, cancerous cells
- pIC50 [7]: ~5.00
- inhibition of Ah receptor transformation / antagonist activity (words) ([7]; 0.5 nM TCDD): does present antagonistic activity towards the Ah receptor
- inhibition of Ah receptor transformation / antagonist activity (words) ([7]; 0.5 nM TCDD, listed as quercetin): antagonistic activity towards the Ah receptor at all doses tried
- Quercetin interaction with the Ah receptor, Milli O.D. Reading ([7]; Table 12, 2.5 μg/mL): 480 Milli O.D.
- Quercetin interaction with the Ah receptor, Milli O.D. Reading ([7]; Table 12, 5 μg/mL): 320 Milli O.D.
- Quercetin interaction with the Ah receptor, Milli O.D. Reading ([7]; Table 12, 10 μg/mL): 260 Milli O.D.
- Quercetin interaction with the Ah receptor, Milli O.D. Reading ([7]; Table 12, 20 μg/mL): 210 Milli O.D.
- genotoxicity / carcinogenic activity [8]: genotoxic compound, that may initiate carcinogenic activity in certain tissues

Compound: O=c1cc(-c2ccccc2)oc2c1ccc1ccccc12 [α-naphthoflavone]
- known Ah receptor agonism/antagonism [9]: known partial agonist and antagonist of the Ah receptor; also recorded: described to act as an Ah receptor antagonist by inhibiting TCDD-induced Ah receptor transformation to a DNA binding form
- inhibition of syncytia formation / cytopathicity [4]: correspondingly weaker activity; also recorded: also effective at inhibiting syncytia formation
- Estimated IC50 (Syncitia Quantification), inhibition of HIV-induced cytopathicity [4]: 350 nM
- ability to transform the Ah receptor / agonist activity ([5]; absence of TCDD): very weak agonist of the Ah receptor; also recorded: did not reach the EC50 of TCDD
- IC50, inhibition of Ah receptor transformation (estimated) ([7]; 0.5 nM TCDD): 18600 nM
- inhibition of Ah receptor transformation / antagonist activity (words) ([7]; 0.5 nM TCDD): more potent antagonist of the Ah receptor
